Paper PMC10819888, “Benzimidazole-Based Derivatives as Apoptotic Antiproliferative Agents: Design, Synthesis, Docking, and Mechanistic Studies” (Molecules, 2024)

How the values were obtained:
Assay in all cases: NCI-60 one-dose assay
Type in all cases: cell-based
[1] = test system: OVCAR-3; settings: Homo sapiens, OVCAR-3 (ovarian cancer), read-out: Cell Inhibition Percent
[2] = test system: TK-10; settings: Homo sapiens, TK-10 (Renal Cancer), read-out: Cell Inhibition Percent
[3] = test system: SNB-19; settings: Homo sapiens, SNB-19 (CNS cancer), read-out: Cell Inhibition Percent
[4] = test system: DU-145; settings: Homo sapiens, DU-145 (Prostate Cancer), read-out: Cell Inhibition Percent
[5] = test system: CCRF-CEM; settings: Homo sapiens, CCRF-CEM (Leukemia), read-out: Cell Inhibition Percent
[6] = test system: HCT-116; settings: Homo sapiens, HCT-116 (Colon Cancer), read-out: Cell Inhibition Percent
[7] = test system: KM12; settings: Homo sapiens, KM12 (Colon Cancer), read-out: Cell Inhibition Percent
[8] = test system: COLO 205; settings: Homo sapiens, COLO 205 (Colon Cancer), read-out: Cell Inhibition Percent
[9] = test system: SF-295; settings: Homo sapiens, SF-295 (CNS cancer), read-out: Cell Inhibition Percent
[10] = test system: NCI/ADR-RES; settings: Homo sapiens, NCI/ADR-RES (ovarian cancer), read-out: Cell Inhibition Percent
[11] = test system: MOLT-4; settings: Homo sapiens, MOLT-4 (Leukemia), read-out: Cell Inhibition Percent
[12] = test system: EKVX; settings: Homo sapiens, EKVX (Non-Small Cell Lung Cancer), read-out: Cell Inhibition Percent
[13] = test system: SK-OV-3; settings: Homo sapiens, SK-OV-3 (ovarian cancer), read-out: Cell Inhibition Percent
[14] = test system: SK-MEL-28; settings: Homo sapiens, SK-MEL-28 (Melanoma), read-out: Cell Inhibition Percent
[15] = test system: NCI-H522; settings: Homo sapiens, NCI-H522 (Non-Small Cell Lung Cancer), read-out: Cell Inhibition Percent
[16] = test system: OVCAR-8; settings: Homo sapiens, OVCAR-8 (ovarian cancer), read-out: Cell Inhibition Percent
[17] = test system: MCF7; settings: Homo sapiens, MCF7 (Breast Cancer), read-out: Cell Inhibition Percent
[18] = test system: RXF 393; settings: Homo sapiens, RXF 393 (Renal Cancer), read-out: Cell Inhibition Percent
[19] = test system: IGROV1; settings: Homo sapiens, IGROV-1, IGROV1 (ovarian cancer), read-out: Cell Inhibition Percent
[20] = test system: SW-620; settings: Homo sapiens, SW-620 (Colon Cancer), read-out: Cell Inhibition Percent
[21] = test system: PC-3; settings: Homo sapiens, PC-3 (Prostate Cancer), read-out: Cell Inhibition Percent
[22] = test system: CAKI-1; settings: Homo sapiens, CAKI-1 (Renal Cancer), read-out: Cell Inhibition Percent
[23] = test system: SN12C; settings: Homo sapiens, SN12C (Renal Cancer), read-out: Cell Inhibition Percent
[24] = test system: U251; settings: Homo sapiens, U-251, U251 (CNS cancer), read-out: Cell Inhibition Percent
[25] = test system: MDA-MB 231; settings: Homo sapiens, MDA-MB 231 (Breast Cancer), read-out: Cell Inhibition Percent
[26] = test system: ACHN; settings: Homo sapiens, ACHN (Renal Cancer), read-out: Cell Inhibition Percent
[27] = test system: 786-0; settings: Homo sapiens, 786-0 (Renal Cancer), read-out: Cell Inhibition Percent
[28] = test system: K-562; settings: Homo sapiens, K562, K-562 (Leukemia), read-out: Cell Inhibition Percent
[29] = test system: SF-539; settings: Homo sapiens, SF-539 (CNS cancer), read-out: Cell Inhibition Percent

Structure (SMILES) | inhibition at 10 µM [1] [%] | inhibition at 10 µM [2] [%] | inhibition at 10 µM [3] [%] | inhibition at 10 µM [4] [%] | inhibition at 10 µM [5] [%] | inhibition at 10 µM [6] [%] | inhibition at 10 µM [7] [%] | inhibition at 10 µM [8] [%] | inhibition at 10 µM [10] [%] | inhibition at 10 µM [11] [%] | inhibition at 10 µM [12] [%] | inhibition at 10 µM [13] [%] | inhibition at 10 µM [14] [%] | inhibition at 10 µM [15] [%] | inhibition at 10 µM [16] [%] | inhibition at 10 µM [17] [%] | inhibition at 10 µM [18] [%] | inhibition at 10 µM [19] [%] | inhibition at 10 µM [20] [%] | inhibition at 10 µM [21] [%] | also measured
CCn1c(-c2ccc3[nH]c(-c4ccc(Cl)cc4)nc3c2)n[nH]c1=S [Compound 6, 4-ethyl-5-(2-(4-chlorophenyl)-1H-benzimidazol-5-yl)-2,4-dihydro-3H-1,2,4triazole-3-thione] | 0 | 0 | 0 | 0 | 0 | 0 | 0 | 0 | 0 | 2.85 | 0.44 | 0 | 0 | 1.85 | 0 | 14.6 | 13.9 | 0.16 | 0 | 7.76 | inhibition at 10 µM [9]: 0.56%; inhibition at 10 µM [22]: 7.78%; inhibition at 10 µM [23]: 0%; inhibition at 10 µM [24]: 0%; inhibition at 10 µM [25]: 2.36%; inhibition at 10 µM [26]: 0%; inhibition at 10 µM [27]: 0%; inhibition at 10 µM [28]: 1.43%; inhibition at 10 µM [29]: 3.69%
O=C(NN=Cc1ccccc1)c1ccc2[nH]c(-c3ccc(Cl)cc3)nc2c1 [Compound 4a, N′-Benzylidene-2-(4-chlorophenyl)-1H-benzimidazole-5-carbohydrazide] | 0 | 0 | 0 | 3.83 | 11.2 | 0 | 3.8 | 0.76 | 0 | 12.9 | 1.38 | 4.7 | 0 | 1 | 1.37 | 23.5 | 15.5 | 4.8 | 0 | 0 | inhibition at 10 µM [9]: 13.2%; inhibition at 10 µM [22]: 1.57%; inhibition at 10 µM [23]: 3.99%; inhibition at 10 µM [24]: 4.35%; inhibition at 10 µM [25]: 0%; inhibition at 10 µM [26]: 3.26%; inhibition at 10 µM [27]: 11.6%; inhibition at 10 µM [28]: 7.37%; inhibition at 10 µM [29]: 9.57%
CN(C)c1ccc(C=NNC(=O)c2ccc3[nH]c(-c4ccc(Cl)cc4)nc3c2)cc1 [Compound 4b, N′-(4-(Dimethylamino)benzylidene)-2-(4-chlorophenyl)-1H-benzimidazole-5-carbohydrazide] | 0 | 0 | 0 | 0 | 6.5 | 4.7 | 2.41 | 0 | 0.43 | 3.18 | 2.85 | 0 | 0 | 3.02 | 5.81 | 23.8 | 7.79 | 15 | 0 | 4.81 | inhibition at 10 µM [9]: 1.06%; inhibition at 10 µM [22]: 4.4%; inhibition at 10 µM [23]: 1.47%; inhibition at 10 µM [24]: 0%; inhibition at 10 µM [25]: 15.6%; inhibition at 10 µM [26]: 1.36%; inhibition at 10 µM [27]: 0%; inhibition at 10 µM [28]: 5.96%; inhibition at 10 µM [29]: 5.22%
CCNC(=S)NNC(=O)c1ccc2[nH]c(-c3ccc(Cl)cc3)nc2c1 [Compound 5] | 0 | 0 | 2.37 | 0 | 86.9 | 0 | 7.97 | 0 | 1.07 | 90 | 18.2 | 0.37 | 0 | 5.4 | 6.74 | 22.1 | 7.61 | 14.3 | 0 | 7.83 | inhibition at 10 µM [22]: 17.1%; inhibition at 10 µM [23]: 10.1%; inhibition at 10 µM [24]: 2.36%; inhibition at 10 µM [25]: 20.5%; inhibition at 10 µM [26]: 6.31%; inhibition at 10 µM [27]: 0%; inhibition at 10 µM [28]: 88.4%; inhibition at 10 µM [29]: 12.2%
